Measurements: paper PMC7588595, “Small-molecule active pharmaceutical ingredients of approved cancer therapeutics inhibit human aspartate/asparagine-β-hydroxylase” (Bioorganic & Medicinal Chemistry, 2020)
Read-outs that look alike come from different tables or passages of the source.

Biological target: T1, human AspH (His6-AspH315–758) (Homo sapiens, UniProt Q12797)
T1 construct: N-Terminally His6-tagged human AspH315–758 (His6-AspH315–758) was produced in Escherichia coli BL21 (DE3) cells; made in house; host or cells: Escherichia coli BL21 (DE3), pET-28a(+) vector
T1 sequence (Q12797 315-758): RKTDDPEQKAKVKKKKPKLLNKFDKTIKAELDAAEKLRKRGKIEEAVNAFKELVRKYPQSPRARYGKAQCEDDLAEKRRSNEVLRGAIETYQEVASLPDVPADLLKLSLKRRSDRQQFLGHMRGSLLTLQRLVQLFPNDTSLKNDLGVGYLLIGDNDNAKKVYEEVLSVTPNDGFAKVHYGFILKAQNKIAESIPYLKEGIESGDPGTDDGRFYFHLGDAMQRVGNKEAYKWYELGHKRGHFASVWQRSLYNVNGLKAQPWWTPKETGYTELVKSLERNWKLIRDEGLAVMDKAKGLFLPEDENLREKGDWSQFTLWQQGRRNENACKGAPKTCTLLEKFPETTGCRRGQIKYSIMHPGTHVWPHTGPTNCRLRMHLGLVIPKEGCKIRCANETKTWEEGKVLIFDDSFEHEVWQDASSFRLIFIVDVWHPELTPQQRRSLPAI
Assay: SPE-MS AspH inhibition assay (hFX-CP101-119 substrate hydroxylation)
Format: biochemical

[1] = AspH-inhibitor screening, 384-well Plate 1
[2] = AspH-inhibitor screening, 384-well Plate 1, substrate conversion
[3] = AspH-inhibitor screening, Plate 1-duplicate
[4] = AspH-inhibitor screening, Plate 1-duplicate, substrate conversion

| Compound | Plate 1 (% inhibition) [1] [%] | Plate 1 (% conversion) [2] [%] | Plate 1-duplicate (% inhibition) [3] [%] | Plate 1-duplicate (% conversion) [4] [%] | other results |
| --- | --- | --- | --- | --- | --- |
| COc1nc(N)nc2c1ncn2[C@@H]1O[C@H](CO)[C@@H](O)[C@@H]1O [Nelarabine] | -1.21 | 50.31 | 1.44 | 51.33 | – |
| O=C(O)CC[C@H]1CC[C@@](c2cc(F)ccc2F)(S(=O)(=O)c2ccc(Cl)cc2)CC1 [MK-0752] | 11.87 | 44.27 | 9.89 | 47.14 | – |
| C[C@@H]1C=C2C(=O)O[C@@H]3CC[C@H](C1)[C@]23O [Galiellalactone] | 15.61 | 42.54 | 8.63 | 47.76 | – |
| COc1c/c(=C2\C=c3ccccc3=N2)[nH]/c1=C\c1[nH]c(C)cc1C.CS(=O)(=O)O [Obatoclax, reference compound] | – | – | – | – | IC50 (50 nM His6-AspH315–758, 1 μM hFX-CP101–119, 100 μM LAA, 3 μM 2OG, 2 μM FAS, 50 mM HEPES pH 7.5, 20 °C, read-out: IC50): 13.2 ± 3.1 µM; remaining activity at 20 µM (20 μM fixed inhibitor concentration): ~20%; Hill coefficient of AspH inhibition curves (dose-response curves of SPE-MS AspH inhibition assay): < -2.0; IC50 (read-out: IC50 at 10 μM substrate, 10 μM hFX-CP101–119 and 10 μM 2OG instead of 1 μM hFX-CP101–119 and 3 μM 2OG): 9.44 ± 3.16 µM; IC50 (read-out: IC50 at 20 μM Fe(II), 20 μM Fe(II) instead of 2 μM Fe(II)): 11.9 ± 0.8 µM; IC50 (read-out: IC50 at 200 μM 2OG, 200 μM 2OG instead of 3 μM 2OG): 16.4 ± 4.6 µM |
| Cl.O=C(/C=C/c1cccnc1)NCCCCC1CCN(C(=O)c2ccccc2)CC1 [FK-866 HCl_Daporinad] | 2.15 | 48.76 | -6.78 | 55.40 | – |
| CS(=O)(=O)CCNCc1ccc(-c2ccc3ncnc(Nc4ccc(OCc5cccc(F)c5)c(Cl)c4)c3c2)o1.Cc1ccc(S(=O)(=O)O)cc1.Cc1ccc(S(=O)(=O)O)cc1 [Lapatinib, di-p-toluenesulfonate salt] | – | – | – | – | Plate 1 (% conversion): 63.38%; Plate 1 (% inhibition): -29.52%; Plate 1-duplicate (% conversion): 62.65%; Plate 1-duplicate (% inhibition): -21.39% |
| Cn1cc(C2=C(c3cn(C4CCN(Cc5ccccn5)CC4)c4ccccc34)C(=O)NC2=O)c2ccccc21 [Enzastaurin] | -3.95 | 51.57 | -0.48 | 52.28 | – |
| Cn1cc(-c2[nH]c3cc(NC(=O)[C@H](N)C4CCCCC4)cc4c3c2C=NNC4=O)cn1 [PF 477736] | -54.30 | 74.83 | -54.03 | 78.84 | – |
| VX-11e | – | – | – | – | Plate 1 (% conversion): 33.84%; Plate 1 (% inhibition): 34.46%; Plate 1-duplicate (% conversion): 36.75%; Plate 1-duplicate (% inhibition): 30.84% |

Further lines, with some results ahead:

| Plate 1 (% inhibition) [1] [%] | Plate 1 (% conversion) [2] [%] | Plate 1-duplicate (% inhibition) [3] [%] | Plate 1-duplicate (% conversion) [4] [%] | Compound | other results |
| --- | --- | --- | --- | --- | --- |
| 5.72 | 47.11 | 4.84 | 49.64 | N#CCNC(=O)c1ccc(-c2ccnc(Nc3ccc(N4CCOCC4)cc3)n2)cc1 [CYT-387_Momelotinib] | – |
| -13.27 | 55.88 | -5.84 | 54.94 | COc1ccc(C2=N[C@@H](c3ccc(Cl)cc3)[C@@H](c3ccc(Cl)cc3)N2C(=O)N2CCNC(=O)C2)c(OC(C)C)c1 [Nutlin-3] | – |
| 11.05 | 44.65 | 0.72 | 51.68 | COc1cc(Nc2ncc(F)c(Nc3ccc4c(n3)NC(=O)C(C)(C)O4)n2)cc(OC)c1OC [R406_Tamatinib] | – |
| -0.12 | 49.81 | 6.11 | 49.01 | Cc1cc(Nc2nc(N[C@@H](C)c3ncc(F)cn3)ncc2Cl)n[nH]1 [AZD1480] | – |
| -0.26 | 49.87 | 1.85 | 51.12 | COc1cc2c(Nc3ccc(Br)cc3F)ncnc2cc1OCC1CCN(C)CC1 [Vandetanib] | – |
| 10.91 | 44.71 | 6.57 | 48.78 | COc1cc([C@@H]2c3cc4c(cc3[C@@H](O[C@@H]3O[C@@H]5CO[C@@H](c6cccs6)O[C@H]5[C@H](O)[C@H]3O)[C@H]3COC(=O)[C@H]23)OCO4)cc(OC)c1O [Teniposide] | – |
